The results in this text go back to patent publication US12150995B2, “IRAK degraders and uses thereof” (Kymera Therapeutics, Inc., priority 2020, dated 2024).

The assay deals with T1, IRAK4 (Homo sapiens, UniProt Q9NWZ3).
T1 construct: endogenous in cells; host or cells: OCI-LY10
T1 sequence (Q9NWZ3 1-460): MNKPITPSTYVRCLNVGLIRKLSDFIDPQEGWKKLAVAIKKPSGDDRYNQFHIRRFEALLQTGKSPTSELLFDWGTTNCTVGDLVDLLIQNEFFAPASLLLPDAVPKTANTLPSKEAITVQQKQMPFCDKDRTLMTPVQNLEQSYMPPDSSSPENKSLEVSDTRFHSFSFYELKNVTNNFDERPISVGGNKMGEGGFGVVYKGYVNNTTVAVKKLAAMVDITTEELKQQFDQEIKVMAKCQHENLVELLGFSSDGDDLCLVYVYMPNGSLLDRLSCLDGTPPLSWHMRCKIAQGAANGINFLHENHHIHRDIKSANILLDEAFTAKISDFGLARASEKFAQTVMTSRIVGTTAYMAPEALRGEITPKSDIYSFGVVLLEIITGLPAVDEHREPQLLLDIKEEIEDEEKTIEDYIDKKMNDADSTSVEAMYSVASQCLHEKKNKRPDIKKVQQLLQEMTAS
Description: IRAK4 MSD Degradation in OCI-LY10. The format is cell-based. Conditions: OCI-LY10 cells, Meso Scale Discovery, incubated 4 to 24 hours. Put shortly:
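IRAK4 degradation was quantified by Meso Scale electrochemiluminescence (anti-IRAK4 capture and detection antibodies) in lysates of treated OCI-LY10 cells. Compounds were dosed at 8 concentrations (1:3 dilutions, top 1 to 10 μM) for 4 to 24 h; DC50 derived by three-parameter logistic fitting.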

Broadly, the DC50 is the concentration at which degradation of the target reaches its halfway point.

The molecule `CC(C)(O)c1cc2nc([C@H]3CC[C@H](CN4CCO[C@@H](CCCNc5cccc6c5C(=O)N(C5CCC(=O)NC5=O)C6=O)C4)CC3)sc2cc1NC(=O)c1cccc(C#N)n1` (stereo partly drawn) [I-438] gave a DC50 of 10 to 50 nM.
With `COc1cc2nc([C@H]3CC[C@H](CN(C)CCCCNc4cccc5c4C(=O)N(C4CCC(=O)NC4=O)C5=O)CC3)sc2cc1NC(=O)c1cccc(C(F)(F)F)n1` (stereo partly drawn) [I-446] the figure was 10 to 50 nM; with `Cc1cccc(C(=O)Nc2cc3sc([C@H]4CC[C@H](CN5CCN(CCCNc6cccc7c6C(=O)N(C6CCC(=O)NC6=O)C7=O)[C@H](C)C5)CC4)nc3cc2C(C)(C)O)n1` (stereo partly drawn) [I-452], 10 to 50 nM.
Then `COc1cc2nn([C@H]3CC[C@H](CN(C)C4CCN(c5cccc6c(N7CCC(=O)NC7=O)cncc56)CC4)CC3)cc2cc1NC(=O)c1cccc(C(F)(F)F)n1` [I-96], with below 10 nM; and `CC(C)(O)c1cc2nc([C@H]3CC[C@H](CN4CCN(CCCNc5cccc6c5C(=O)N(C5CCC(=O)NC5=O)C6=O)CC4)CC3)sc2cc1NC(=O)c1cccc(C#N)n1` (stereo partly drawn) [I-440], with 10 to 50 nM.
With `COc1cc2nn([C@H]3CC[C@H](CN4CCN(c5cccc6c5n(C)c(=O)n6C5CCC(=O)NC5=O)CC4)CC3)cc2cc1NC(=O)c1cncc(C(F)(F)F)n1` (stereo partly drawn) [I-297] the figure was below 10 nM; with `COc1cc2nn([C@H]3CC[C@H](CN4CCC(c5ccc6c(N7CCC(=O)NC7=O)cncc6c5)CC4)CC3)cc2cc1NC(=O)c1cncc(C#N)c1` [I-122], 100 to 200 nM.
`COc1cc2nn([C@H]3CC[C@H](CN4CCN(c5cccc6c(N7CCC(=O)NC7=O)cncc56)CC4)CC3)cc2cc1NC(=O)c1ccnc(C(F)(F)F)n1` [I-300] returned a DC50 of 10 to 50 nM.
Then `COc1cc2nn([C@H]3CC[C@H](CN(C)C4CCN(c5cccc6c5n(C)c(=O)n6C5CCC(=O)NC5=O)CC4)CC3)cc2cc1NC(=O)c1cncc(F)c1` (stereo partly drawn) [I-81], with below 10 nM.
Then `CN(CCCN(C)[C@H]1C[C@H](Nc2cccc3c2C(=O)N(C2CCC(=O)NC2=O)C3=O)C1)C[C@H]1CC[C@H](n2cc3cc(NC(=O)c4cccc(C(F)(F)F)n4)c(C(C)(C)O)cc3n2)CC1` (stereo partly drawn) [I-263], with 10 to 50 nM; and `Cn1c(=O)n(C2CCC(=O)NC2=O)c2ccc(C3CCN(C[C@H]4CC[C@H](n5cc6cc(NC(=O)c7cccc(C(F)(F)F)n7)ccc6n5)CC4)CC3)c(Cl)c21` (stereo partly drawn) [I-180], with above 200 nM; and `COc1cc2nc([C@H]3CC[C@H](CN(C)CCCCNc4cccc5c4C(=O)N(C4CCC(=O)NC4=O)C5=O)CC3)sc2cc1NC(=O)c1cncc(Cl)c1` (stereo partly drawn) [I-480], with above 200 nM.
In turn, `COc1cc2nn([C@H]3CC[C@H](CN4CCN(c5cccc6c(N7CCC(=O)NC7=O)cncc56)CC4)CC3)cc2cc1NC(=O)c1cncc(C#N)c1` [I-259] registered a half-maximal degradation concentration (DC50) of 10 to 50 nM.
With `COc1cc2nn([C@H]3CC[C@H](CN4C[C@@H]5C[C@H]4CN5c4cccc5c4n(C)c(=O)n5C4CCC(=O)NC4=O)CC3)cc2cc1NC(=O)c1cccc(C(F)(F)F)n1` (stereo partly drawn) [I-168] the figure was below 10 nM; with `COc1cc2nn([C@H]3CC[C@H](CN4CCN(C[C@H]5C[C@H](c6cccc7c(N8CCC(=O)NC8=O)cncc76)C5)CC4)CC3)cc2cc1NC(=O)c1cccc(C(F)(F)F)n1` [I-285], below 10 nM; with `COc1ccc2c(c1C1CCN(C[C@H]3CC[C@H](n4cc5cc(NC(=O)c6cccc(C(F)(F)F)n6)ncc5n4)CC3)CC1)n(C)c(=O)n2C1CCC(=O)NC1=O` (stereo partly drawn) [I-83], below 10 nM.
With `CC(C)(O)c1cc2nc([C@H]3CC[C@H](CN4CCO[C@H](CCCNc5cccc6c5C(=O)N(C5CCC(=O)NC5=O)C6=O)C4)CC3)sc2cc1NC(=O)c1cncc(C#N)c1` (stereo partly drawn) [I-455] the figure was above 200 nM.
With `Cc1cc2nn([C@H]3CC[C@H](CN4CCN(c5cccc6c5n(C)c(=O)n6[C@@H]5CCC(=O)NC5=O)CC4)CC3)cc2cc1NC(=O)c1cccc(C(F)(F)F)n1` [I-400, N-[2-[4-[[4-[1-[(3R)-2,6-dioxo-3-piperidyl]-3-methyl-2-oxo-benzimidazol-4-yl]piperazin-1-yl]methyl]cyclohexyl]-6-methyl-indazol-5-yl]-6-(trifluoromethyl)pyridine-2-carboxamide] the figure was below 10 nM.
The molecule `COc1cc2nc([C@H]3CC[C@H](CN(C)CCCNc4cccc5c4C(=O)N(C4CCC(=O)NC4=O)C5=O)CC3)sc2cc1NC(=O)c1cncc(C#N)c1` (stereo partly drawn) [I-458] returned a DC50 above 200 nM.
With `CC(C)(O)c1cc2nc([C@H]3CC[C@H](C(=O)N4CCC5(CC4)CC(CCNc4cccc6c4C(=O)N(C4CCC(=O)NC4=O)C6=O)C5)CC3)sc2cc1NC(=O)c1cccc(C(F)F)n1` (stereo partly drawn) [I-457] the figure was 100 to 200 nM; with `COc1cc2nc([C@H]3CC[C@H](CN4CCN(c5cccc6c(N7CCC(=O)NC7=O)cncc56)CC4)CC3)sc2cc1NC(=O)c1cccc(C(F)(F)F)n1` [I-223], 10 to 50 nM.
With `Cc1cc2nn([C@H]3CC[C@H](CN4CCC(c5cccc6c5n(C)c(=O)n6[C@H]5CCC(=O)NC5=O)CC4)CC3)cc2cc1NC(=O)c1cccc(C(F)(F)F)n1` (single isomer, unassigned) [I-390] the figure was 10 to 50 nM; with `COc1cc2nn([C@H]3CC[C@H](CN(C)C4CCN(c5cccc6c5n(C)c(=O)n6C5CCC(=O)NC5=O)CC4)CC3)cc2cc1NC(=O)c1cncc(C(F)(F)F)c1` (stereo partly drawn) [I-92], below 10 nM.
Then `CN(C[C@H]1CC[C@H](n2cc3cc(NC(=O)c4cccc(C(F)(F)F)n4)c(C(C)(C)O)cc3n2)CC1)C1CCN(c2cccc3c(N4CCC(=O)NC4=O)cncc23)CC1` [I-66], with below 10 nM; and `Cc1cc2nn([C@H]3CC[C@H](CN4C[C@H]5C[C@@H]4CN5c4cccc5c4n(C)c(=O)n5C4CCC(=O)NC4=O)CC3)cc2cc1NC(=O)c1cccc(C(F)(F)F)n1` (stereo partly drawn) [I-389], with 10 to 50 nM; and `Cn1c(=O)n(C2CCC(=O)NC2=O)c2cccc(N3CCN(C[C@H]4CC[C@H](n5cc6cc(NC(=O)c7cccc(C(F)(F)F)n7)c(S(C)(=O)=O)cc6n5)CC4)CC3)c21` (stereo partly drawn) [I-422], with below 10 nM.
Turning to `CC(C)(O)c1cc2nc([C@H]3CC[C@H](C(=O)N4CCN(CCCNc5cccc6c5C(=O)N(C5CCC(=O)NC5=O)C6=O)CC4)CC3)sc2cc1NC(=O)c1cncc(C#N)c1` (stereo partly drawn) [I-451], the DC50 is 50 to 100 nM.
On to `COc1cncc(C(=O)Nc2cc3cn([C@H]4CC[C@H](CN5CCN(c6cccc7c6n(C)c(=O)n7C6CCC(=O)NC6=O)CC5)CC4)nc3cc2OC)c1` (stereo partly drawn) [I-287], for which the DC50 was below 10 nM.
With `C[C@@H]1CN(C[C@H]2CC[C@H](n3cc4cc(NC(=O)c5cccc(C(F)(F)F)n5)c(C(C)(C)O)cc4n3)CC2)CCN1c1cccc2c(N3CCC(=O)NC3=O)cncc12` [I-257] the figure was below 10 nM.
With `COc1cc2nn([C@H]3CC[C@H](CN4CC=C(c5ccc6c(c5)n(C)c(=O)n6C5CCC(=O)NC5=O)C4)CC3)cc2cc1NC(=O)c1cccc(C(F)(F)F)n1` (stereo partly drawn) [I-366] the figure was below 10 nM.
Then `Cn1c(=O)n(C2CCC(=O)NC2=O)c2cccc(C3CCN(C[C@H]4CC[C@H](n5cc6cc(NC(=O)c7cccc(C(F)(F)F)n7)c(Cl)cc6n5)CC4)CC3)c21` (stereo partly drawn) [I-24], with 10 to 50 nM; and `O=C1CCN(c2cncc3cc(C4CCN(C[C@H]5CC[C@H](n6cc7cc(NC(=O)c8cccc(C(F)(F)F)n8)ncc7n6)CC5)CC4)ccc23)C(=O)N1` [I-318], with above 200 nM.
Molecule `CC(C)Nc1cc(-n2ccc3cc(C(F)(F)F)cnc32)ncc1C(=O)N[C@H]1CC[C@H](CN2CCN(c3cccc4c3n(C)c(=O)n4C3CCC(=O)NC3=O)CC2)CC1` (stereo partly drawn) [I-369] came in with a half-maximal degradation concentration (DC50) of 100 to 200 nM.
Then `COc1cc2nc([C@H]3CC[C@H](CN4CCC5(CC4)CC(CCNc4cccc6c4C(=O)N(C4CCC(=O)NC4=O)C6=O)C5)CC3)oc2cc1NC(=O)c1cnn2cccnc12` (stereo partly drawn) [I-7], with above 200 nM; and `CC(C)Nc1c(C(=O)N[C@H]2CC[C@H](CN3CCN(c4cccc5c(N6CCC(=O)NC6=O)cncc45)CC3)CC2)cnc2sc(-c3cncs3)cc12` [I-418], with 10 to 50 nM.
With `COc1cc2nn([C@H]3CC[C@H](CN4CCN(c5cccc6c(N7CCC(=O)NC7=O)cncc56)[C@H](C)C4)CC3)cc2cc1NC(=O)c1cccc(C(F)(F)F)n1` [I-256] the figure was below 10 nM; with `COc1cc2nn([C@H]3CC[C@H](CN4CCC(c5cccc6c5n(C)c(=O)n6C5CCC(=O)NC5=O)CC4)CC3)cc2cc1NC(=O)c1ccccc1F` (stereo partly drawn) [I-174], below 10 nM.
`COc1cc2nc([C@H]3CC[C@H](CN(C)CCNc4cccc5c4C(=O)N(C4CCC(=O)NC4=O)C5=O)CC3)sc2cc1NC(=O)c1cncc(F)c1` (stereo partly drawn) [I-481] showed a DC50 above 200 nM.
The molecule `CN(C[C@H]1CC[C@H](n2cc3cc(NC(=O)c4cccc(C(F)(F)F)n4)ccc3n2)CC1)C1CCN(c2cccc3c2n(C)c(=O)n3C2CCC(=O)NC2=O)CC1` (stereo partly drawn) [I-58] returned a DC50 below 10 nM.
With `CC(C)Nc1cc(-c2ccc3cc(C#N)cnn23)ncc1C(=O)N[C@H]1CC[C@H](CN2CCC(OCC#Cc3cccc4c3n(C)c(=O)n4C3CCC(=O)NC3=O)CC2)CC1` (stereo partly drawn) [I-199] the figure was 10 to 50 nM; with `COc1cc2nn([C@H]3CC[C@H](CN4CCC(c5cccc6c5n(C)c(=O)n6C5CCC(=O)NC5=O)CC4)CC3)cc2cc1NC(=O)c1ccc(C(F)(F)F)nc1` (stereo partly drawn) [I-194], above 200 nM.
With `COc1cc2nn([C@H]3CC[C@H](CN4CCN(c5cccc6c5n(C)c(=O)n6C5CCC(=O)NC5=O)CC4(C)C)CC3)cc2cc1NC(=O)c1cccc(C(F)(F)F)n1` (stereo partly drawn) [I-306] the figure was 10 to 50 nM.
